Results published in patent publication US9227977B2, “Phosphoinositide 3-kinase inhibitors” (RESPIVERT LTD., priority 2013, dated 2016).
Like-named read-outs stand apart in the source and are kept apart here.

Experiments:
[1] = tested on: cigarette smoke-induced cell accumulation and biomarkers in murine BALF; test: Cigarette smoke model; format: in vivo, mouse; conditions: for % inhibition, Macrophages in BAL / % inhibition, Neutrophils in BAL / Cell numbers in BAL, Macrophages / Cell numbers in BAL, Neutrophils: mice, CS, intra-nasal; for Cell numbers in BAL, Macrophages / Cell numbers in BAL, Neutrophils: mean ± SEM; for Inhibition (%) of CXCL1 in BALF / Inhibition (%) of IL-17 in BALF / Inhibition (%) of MCP-1 in BALF / Inhibition (%) of MDA in BALF / Inhibition (%) of Osteopontin in BALF / Inhibition (%) of TNF α in BALF: with respect to tobacco
Description: A/J mice (males, 5 weeks old) were exposed to cigarette smoke (4% cigarette smoke, diluted with compressed air) for 30 min/day for 11 days using a Tobacco Smoke Inhalation Experiment System for small animals (Model SIS-CS; Sibata Scientific Technology, Tokyo, Japan). Test substances were administered once daily for 3 days after the final cigarette smoke exposure (intra-nasal dose comprising 35 μL of solution in 50% DMSO/isotonic saline).
At 12 hr after administration of the last dose, animals were anesthetized, the trachea was cannulated and bronchial alveolar lavage (BAL) was carried out by the instillation into and then withdawal from the lungs, of PBS (100 mL/kg). Total cell numbers in the BALF samples were measured using a haemocytometer under a phase-contrast microscope. The proportions of alveolar macrophages and neutrophils were determined by FACS analysis using anti-mouse MOMA2-FITC (macrophage) or anti-mouse 7/4 (neutrophil).
Cells were suspended in PBS and were incubated with anti-MOMA2-FITC (2 μg/mL, Catalogue no SM065F, Acris Antibodies GmbH, Herford, Germany) or anti-7/4-FITC (2 μg/mL, Catalogue no CL050F, Acris Antibodies GmbH, Herford, Germany) for 30 min at 30° C., and also counterstained with propidium iodide (2 μg/mL) to allow exclusion of necrotic cells. The cells were washed with PBS, and transferred to FACS tubes. Samples was set in a flow cytometer (ALTRA II; Beckman Coulter Japan, Tokyo, Japan), and a single-parameter FL2 [PMT2] (FITC) histogram with log x-axis was plotted to illustrate relative intensity of FITC.
Data files are stored for subsequent analysis using Kaluza analysis software (ver. 1.2) to calculate the proportion of each cell type. The levels of CXCL1(KC), MCP1, TNFα, IL-17 or osteopontin in BALF were determined using Quentikine® mouse KC, MCP1, TNFα, IL-17 or osteopontin ELISA kit (R&D systems, Inc., Minneapolis, Minn., USA). The presence of malondialdehyde was measured using OxiSelect® TBARS Assay Kit (MDA Quantitation; Cell Biolabs Inc, San Diego, Calif., USA).

PI3K β = PI3K β (Homo sapiens (Human), UniProt P42338); test: PI3K enzyme inhibition assay (HTRF TR-FRET); format: biochemical
PI3K β, sequence (P42338 whole entry, species assumed): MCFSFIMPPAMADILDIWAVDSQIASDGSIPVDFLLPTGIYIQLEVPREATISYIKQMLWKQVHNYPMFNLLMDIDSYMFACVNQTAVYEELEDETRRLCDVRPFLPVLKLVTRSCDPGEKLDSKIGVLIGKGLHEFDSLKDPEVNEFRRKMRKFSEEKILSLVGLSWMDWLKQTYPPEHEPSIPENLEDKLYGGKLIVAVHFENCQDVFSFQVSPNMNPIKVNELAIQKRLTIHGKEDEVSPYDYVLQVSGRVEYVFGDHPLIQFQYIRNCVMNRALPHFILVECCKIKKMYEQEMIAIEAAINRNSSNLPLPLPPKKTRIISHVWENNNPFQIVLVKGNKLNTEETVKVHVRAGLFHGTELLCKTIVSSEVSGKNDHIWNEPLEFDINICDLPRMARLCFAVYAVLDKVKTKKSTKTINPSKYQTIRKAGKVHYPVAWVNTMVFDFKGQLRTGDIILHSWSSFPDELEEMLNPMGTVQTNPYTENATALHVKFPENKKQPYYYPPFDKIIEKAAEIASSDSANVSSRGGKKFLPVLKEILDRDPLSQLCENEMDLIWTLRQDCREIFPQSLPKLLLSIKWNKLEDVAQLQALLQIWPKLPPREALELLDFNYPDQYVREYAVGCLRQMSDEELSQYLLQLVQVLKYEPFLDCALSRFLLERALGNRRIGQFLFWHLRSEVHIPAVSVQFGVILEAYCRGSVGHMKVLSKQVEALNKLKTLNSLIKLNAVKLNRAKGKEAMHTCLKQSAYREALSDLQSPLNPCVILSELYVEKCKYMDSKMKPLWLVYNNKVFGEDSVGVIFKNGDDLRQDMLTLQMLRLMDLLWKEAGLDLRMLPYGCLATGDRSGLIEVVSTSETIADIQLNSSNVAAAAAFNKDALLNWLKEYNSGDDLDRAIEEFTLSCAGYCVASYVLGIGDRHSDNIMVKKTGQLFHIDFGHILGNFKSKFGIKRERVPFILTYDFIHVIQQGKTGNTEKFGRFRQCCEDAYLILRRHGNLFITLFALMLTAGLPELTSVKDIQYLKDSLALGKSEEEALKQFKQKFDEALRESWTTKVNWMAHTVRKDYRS
PI3K β, sequence (P27986 whole entry partner, species assumed): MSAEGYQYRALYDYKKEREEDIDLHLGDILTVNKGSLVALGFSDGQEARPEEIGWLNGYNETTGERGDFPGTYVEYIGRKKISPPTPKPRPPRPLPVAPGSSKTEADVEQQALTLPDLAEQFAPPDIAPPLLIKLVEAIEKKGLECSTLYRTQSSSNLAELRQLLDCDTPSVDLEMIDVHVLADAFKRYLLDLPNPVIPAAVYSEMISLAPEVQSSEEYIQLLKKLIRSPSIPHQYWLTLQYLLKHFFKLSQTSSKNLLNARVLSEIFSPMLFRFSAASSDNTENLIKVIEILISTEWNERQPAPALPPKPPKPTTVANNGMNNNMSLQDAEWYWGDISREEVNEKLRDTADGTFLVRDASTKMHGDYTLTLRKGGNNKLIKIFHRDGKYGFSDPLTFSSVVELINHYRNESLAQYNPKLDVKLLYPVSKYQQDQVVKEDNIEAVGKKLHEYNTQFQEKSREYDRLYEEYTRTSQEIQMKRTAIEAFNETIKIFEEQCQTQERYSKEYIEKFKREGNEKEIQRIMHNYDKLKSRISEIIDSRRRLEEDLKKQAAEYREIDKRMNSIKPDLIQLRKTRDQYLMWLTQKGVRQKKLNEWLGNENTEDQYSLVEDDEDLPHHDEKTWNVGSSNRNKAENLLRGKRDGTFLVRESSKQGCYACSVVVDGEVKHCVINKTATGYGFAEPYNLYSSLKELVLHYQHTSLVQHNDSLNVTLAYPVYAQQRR
Description: (§1) The PI3K enzymes catalyse the phosphorylation of phosphatidylinositol 4,5-biphosphate (PIP2) to phosphatidylinositol 3,4,5-triphosphate (PIP3) in the presence of ATP and Mg^2+ ions. The PIP3 product can be detected by displacement of biotin-PIP3 from energy transfer complexes consisting of europium labelled anti-GST monoclonal antibody, a GST-tagged Pleckstrin homology (PH) domain, biotinylated PIP3 and streptavidin-allophycocyanin (APC) by the time-resolved fluorescence resonance energy transfer (TR-FRET) (HTRF®PI3K enzyme assay, Millipore). Excitation, at 330 nm, of europium in the complex results in an energy transfer to the APC and a fluorescent emission at 665 nm although europium itself emits at its characteristic wavelength of 620 nm. The PIP3 product formed by PI3K activity displaces biotin-PIP3 from the complex and results in a loss of energy transfer (decreasing signal).
(§2) The compound to be tested was added, at the desired final concentrations, to a mixture of PIP2 substrate and a recombinant PI3K enzyme (either α, β or δ isoforms, ex Millipore, or γ isoform [p110γ+p101 construct], ex United States Biological, Swampscott, Mass.) and the mixture incubated for 2 hr at RT. Following this incubation period, ATP (10 μM) was added to the enzyme/compound/PIP2 substrate mixture and the resulting mixture was incubated for a further 30 min at RT. A stopping solution containing biotinylated PIP3 and the detection mix containing the GST tagged GRP1 pleckstrin homology (PH) domain and fluorophores were then added and the mixture was incubated at RT for 15-18 hr, prior to detection in a fluorescence microplate reader (Synergy 4, BioTek UK, Bedfordshire, UK).
The results were calculated according to the formula: APC signal (emission at 665 nm)/europium signal (emission at 620 nm)×10^4. The percentage inhibition of each reaction was calculated relative to DMSO treated control, and the 50% inhibitory concentration (IC50 value) then calculated from the concentration-response curve.

PI3K α = PI3K α (Homo sapiens (Human), UniProt P42336); test: PI3K enzyme inhibition assay (HTRF TR-FRET); format: biochemical
PI3K α, sequence (P42336 whole entry, species assumed): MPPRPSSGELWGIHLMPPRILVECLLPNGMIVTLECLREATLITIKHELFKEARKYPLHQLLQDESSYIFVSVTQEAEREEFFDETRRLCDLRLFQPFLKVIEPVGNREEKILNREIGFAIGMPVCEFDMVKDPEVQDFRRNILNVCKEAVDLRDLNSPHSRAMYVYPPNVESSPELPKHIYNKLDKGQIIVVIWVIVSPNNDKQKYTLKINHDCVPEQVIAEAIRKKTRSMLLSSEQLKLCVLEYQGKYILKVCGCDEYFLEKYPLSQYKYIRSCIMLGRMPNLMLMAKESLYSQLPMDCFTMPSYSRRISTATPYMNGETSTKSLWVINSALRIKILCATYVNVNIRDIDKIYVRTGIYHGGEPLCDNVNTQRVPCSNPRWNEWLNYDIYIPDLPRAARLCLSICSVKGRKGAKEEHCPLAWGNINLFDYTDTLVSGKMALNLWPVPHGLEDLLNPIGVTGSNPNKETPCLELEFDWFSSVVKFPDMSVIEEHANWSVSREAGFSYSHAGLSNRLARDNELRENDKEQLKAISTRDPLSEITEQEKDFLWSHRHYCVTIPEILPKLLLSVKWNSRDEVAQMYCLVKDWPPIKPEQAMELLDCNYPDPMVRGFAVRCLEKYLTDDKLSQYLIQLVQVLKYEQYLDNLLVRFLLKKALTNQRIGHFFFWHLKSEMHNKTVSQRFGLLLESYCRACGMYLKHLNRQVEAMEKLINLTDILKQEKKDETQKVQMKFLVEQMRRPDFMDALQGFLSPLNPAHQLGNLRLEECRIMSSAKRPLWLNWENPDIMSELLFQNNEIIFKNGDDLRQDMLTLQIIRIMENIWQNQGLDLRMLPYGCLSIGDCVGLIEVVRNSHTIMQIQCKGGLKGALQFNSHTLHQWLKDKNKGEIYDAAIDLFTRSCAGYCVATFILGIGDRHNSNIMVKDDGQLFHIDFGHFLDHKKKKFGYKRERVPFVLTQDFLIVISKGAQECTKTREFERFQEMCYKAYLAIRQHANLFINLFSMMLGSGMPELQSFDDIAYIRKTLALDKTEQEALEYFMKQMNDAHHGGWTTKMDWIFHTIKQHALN
PI3K α, sequence (P27986 whole entry partner, species assumed): as the sequence (P27986 whole entry partner, species assumed) above
Description: as §1
as §2, with “Following this incubation period, ATP (10 μM) was added to the enzyme/compound/PIP2 substrate mixture and the resulting mixture was incubated for a further 30 min at RT.” left out
(§3) The results were calculated according to the formula: APC signal (emission at 665 nm)/europium signal (emission at 620 nm)×10^4.

PI3K δ = PI3K δ (Homo sapiens (Human), UniProt O00329); test: PI3K enzyme inhibition assay (HTRF TR-FRET); format: biochemical
PI3K δ, sequence (O00329 whole entry, species assumed): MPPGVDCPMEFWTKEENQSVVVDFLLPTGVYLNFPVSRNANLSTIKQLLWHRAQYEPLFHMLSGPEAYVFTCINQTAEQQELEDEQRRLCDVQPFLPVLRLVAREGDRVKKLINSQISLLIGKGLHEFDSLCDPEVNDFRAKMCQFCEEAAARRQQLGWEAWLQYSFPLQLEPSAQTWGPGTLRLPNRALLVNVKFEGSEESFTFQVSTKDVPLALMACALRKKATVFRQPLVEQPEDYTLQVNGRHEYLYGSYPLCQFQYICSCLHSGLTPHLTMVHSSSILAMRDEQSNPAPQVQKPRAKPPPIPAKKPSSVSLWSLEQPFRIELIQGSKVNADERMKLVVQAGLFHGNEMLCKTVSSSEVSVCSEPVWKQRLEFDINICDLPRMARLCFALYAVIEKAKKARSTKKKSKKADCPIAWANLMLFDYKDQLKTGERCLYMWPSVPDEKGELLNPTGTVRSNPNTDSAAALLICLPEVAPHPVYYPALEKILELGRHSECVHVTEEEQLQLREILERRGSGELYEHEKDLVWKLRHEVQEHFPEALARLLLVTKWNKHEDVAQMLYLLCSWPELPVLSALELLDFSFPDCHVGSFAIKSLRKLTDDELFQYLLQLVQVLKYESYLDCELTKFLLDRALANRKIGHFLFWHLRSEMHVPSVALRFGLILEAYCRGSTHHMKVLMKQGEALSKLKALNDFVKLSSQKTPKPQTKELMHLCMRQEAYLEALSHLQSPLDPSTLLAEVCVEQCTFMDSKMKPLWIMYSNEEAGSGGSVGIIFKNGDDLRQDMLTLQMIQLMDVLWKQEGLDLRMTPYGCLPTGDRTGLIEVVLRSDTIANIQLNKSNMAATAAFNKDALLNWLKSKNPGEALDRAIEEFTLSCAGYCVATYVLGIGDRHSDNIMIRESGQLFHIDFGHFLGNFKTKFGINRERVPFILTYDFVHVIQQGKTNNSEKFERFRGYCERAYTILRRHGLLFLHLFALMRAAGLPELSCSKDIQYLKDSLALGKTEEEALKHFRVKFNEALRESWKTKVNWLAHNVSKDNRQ
PI3K δ, sequence (P27986 whole entry partner, species assumed): as the sequence (P27986 whole entry partner, species assumed) above
Description: as §1
as §2, with “Following this incubation period, ATP (10 μM) was added to the enzyme/compound/PIP2 substrate mixture and the resulting mixture was incubated for a further 30 min at RT.” left out
as §3

PI3K γ = PI3K γ (Homo sapiens (Human), UniProt P48736); test: PI3K enzyme inhibition assay (HTRF TR-FRET); format: biochemical
Description: as §1
as §2, with “Following this incubation period, ATP (10 μM) was added to the enzyme/compound/PIP2 substrate mixture and the resulting mixture was incubated for a further 30 min at RT.” left out
as §3

COCCOCCOCC#Cc1cccc2nc(Cn3nc(-c4cc(O)cc(F)c4)c4c(N)ncnc43)n(Cc3ccccc3C(F)(F)F)c(=O)c12 [Compound (I), 2-((4-Amino-3-(3-fluoro-5-hydroxyphenyl)-1H-pyrazolo[3,4-d]pyrimidin-1-yl)methyl)-5-(3-(2-(2-methoxyethoxy)ethoxy)prop-1-yn-1-yl)-3-(2-(trifluoromethyl)benzyl)quinazolin-4(3H)-one]
potency versus compound A on cigarette-smoke induced cell accumulation in murine BALF (in words) ([1]; contemporaneous study): more potent inhibitor
% inhibition, Macrophages in BAL ([1]; 0.02 mg/mL): 32%
% inhibition, Neutrophils in BAL ([1]; 0.02 mg/mL): 26%
Cell numbers in BAL, Macrophages ([1]; 0.02 mg/mL): 13.6 ± 0.2 x10^4/mL
Cell numbers in BAL, Neutrophils ([1]; 0.02 mg/mL): 8.6 ± 0.2 x10^4/mL
% inhibition, Macrophages in BAL ([1]; 0.2 mg/mL): 63%
% inhibition, Neutrophils in BAL ([1]; 0.2 mg/mL): 54%
Cell numbers in BAL, Macrophages ([1]; 0.2 mg/mL): 9.5 ± 0.2 x10^4/mL
Cell numbers in BAL, Neutrophils ([1]; 0.2 mg/mL): 6.0 ± 0.1 x10^4/mL
% inhibition, Macrophages in BAL ([1]; 2 mg/mL): 79%
% inhibition, Neutrophils in BAL ([1]; 2 mg/mL): 68%
Cell numbers in BAL, Macrophages ([1]; 2 mg/mL): 7.4 ± 0.3 x10^4/mL
Cell numbers in BAL, Neutrophils ([1]; 2 mg/mL): 4.6 ± 0.1 x10^4/mL
Inhibition (%) of CXCL1 in BALF ([1]; Compound (I) 0.02 mg/mL): 32%
Inhibition (%) of IL-17 in BALF ([1]; Compound (I) 0.02 mg/mL): 27%
Inhibition (%) of MCP-1 in BALF ([1]; Compound (I) 0.02 mg/mL): 28%
Inhibition (%) of MDA in BALF ([1]; Compound (I) 0.02 mg/mL): 25%
Inhibition (%) of Osteopontin in BALF ([1]; Compound (I) 0.02 mg/mL): 22%
Inhibition (%) of TNF α in BALF ([1]; Compound (I) 0.02 mg/mL): 22%
Inhibition (%) of CXCL1 in BALF ([1]; Compound (I) 0.2 mg/mL): 52%
Inhibition (%) of IL-17 in BALF ([1]; Compound (I) 0.2 mg/mL): 41%
Inhibition (%) of MCP-1 in BALF ([1]; Compound (I) 0.2 mg/mL): 45%
Inhibition (%) of MDA in BALF ([1]; Compound (I) 0.2 mg/mL): 42%
Inhibition (%) of Osteopontin in BALF ([1]; Compound (I) 0.2 mg/mL): 44%
Inhibition (%) of TNF α in BALF ([1]; Compound (I) 0.2 mg/mL): 38%
Inhibition (%) of CXCL1 in BALF ([1]; Compound (I) 2 mg/mL): 71%
Inhibition (%) of IL-17 in BALF ([1]; Compound (I) 2 mg/mL): 60%
Inhibition (%) of MCP-1 in BALF ([1]; Compound (I) 2 mg/mL): 78%
Inhibition (%) of MDA in BALF ([1]; Compound (I) 2 mg/mL): 64%
Inhibition (%) of Osteopontin in BALF ([1]; Compound (I) 2 mg/mL): 63%
Inhibition (%) of TNF α in BALF ([1]; Compound (I) 2 mg/mL): 62%
inhibitory activity versus PI3K β in enzyme assays (in words) (PI3K β): low inhibitory activity
IC50 (PI3K β; read-out: IC50 Values for PI3K inhibition at isozyme indicated, PI3K β): 4890 nM
IC50 (PI3K β; read-out: PI3 Kinase Inhibition IC50 value at state isozyme, β): 4890 nM
inhibitory activity versus PI3K α in enzyme assays (in words) (PI3K α): no inhibitory activity
IC50 (PI3K α; read-out: IC50 Values for PI3K inhibition at isozyme indicated, PI3K α): > 13900 nM
IC50 (PI3K α; read-out: PI3 Kinase Inhibition IC50 value at state isozyme, α): > 13900 nM
IC50 (PI3K δ; read-out: IC50 Values for PI3K inhibition at isozyme indicated, PI3K δ): 2.5 nM
IC50 (PI3K δ; read-out: PI3 Kinase Inhibition IC50 value at state isozyme, δ): 2.5 nM
IC50 (PI3K γ; read-out: IC50 Values for PI3K inhibition at isozyme indicated, PI3K γ): 28 nM
IC50 (PI3K γ; read-out: PI3 Kinase Inhibition IC50 value at state isozyme, γ): 28 nM
